PubChem BioAssay AID2060900 (Molecular Pharmacology Branch, DTP, NCI, 2025)

Tested on: 521955-158-R2-J5-PDC complex spheroids, viability
Experiment: Anticancer human tumor 521955-158-R2-J5-PDC patient-derived pancreatic carcinoma cell line growth inhibition [RAS]
Conditions: for IC50: curve of first compound; for viability, T/C: stronger effect = lower value
Method in brief: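 Tumour cells grown as complex spheroids with HUVEC endothelial cells and mesenchymal stem cells, treated with RAS pathway inhibitor combinations. Each agent spans half-log steps from near clinical Cmax, or 10 microM where Cmax is unknown.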

[1] = second compound 0.00316 µM, first compound 0.0316 µM
[2] = second compound 0.00316 µM, first compound 0.1 µM
[3] = second compound 0.00316 µM, first compound 0.316 µM
[4] = second compound 0.00316 µM, first compound 1 µM
[5] = second compound 0.01 µM, first compound 0.0316 µM
[6] = second compound 0.01 µM, first compound 0.1 µM
[7] = second compound 0.01 µM, first compound 0.316 µM
[8] = second compound 0.01 µM, first compound 1 µM
[9] = second compound 0.0316 µM, first compound 0.0316 µM
[10] = second compound 0.0316 µM, first compound 0.1 µM
[11] = second compound 0.0316 µM, first compound 0.316 µM
[12] = second compound 0.0316 µM, first compound 1 µM
[13] = second compound 0.1 µM, first compound 0.0316 µM
[14] = second compound 0.1 µM, first compound 0.1 µM
[15] = second compound 0.1 µM, first compound 0.316 µM
[16] = second compound 0.1 µM, first compound 1 µM
[17] = second compound 0.316 µM, first compound 0.0316 µM
[18] = second compound 0.316 µM, first compound 0.1 µM
[19] = second compound 0.316 µM, first compound 0.316 µM
[20] = second compound 0.316 µM, first compound 1 µM
[21] = second compound 1 µM, first compound 0.0316 µM
[22] = second compound 1 µM, first compound 0.1 µM
[23] = second compound 1 µM, first compound 0.316 µM
[24] = second compound 1 µM, first compound 1 µM
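Also: compound exposure lasted seven days before the viability read.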
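For viability, T/C in this document: spheroids also contain HUVEC endothelial cells and mesenchymal stem cells as stroma.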

**Q.** `CCC(CC)c1cc(NC2CCC(N)C2)n2nccc2n1` (centres undefined) + C=CC(=O)N1CCN(c2nc(OCC3CCCN3C)nc3c(F)c(-c4nc(N)cc(C)c4C(F)(F)F)c(Cl)cc23)C(C)C1 was tested. Which IC50 (second compound 0.00316 µM) did it give?
**A.** Its IC50 is 1950 nM.

**Q.** And the IC50 (second compound 0.01 µM)?
**A.** Its IC50 is 2100 nM.

**Q.** What about the IC50 (second compound 0.0316 µM) of the same molecule?
**A.** Its IC50 is 2110 nM.

**Q.** And the IC50 (second compound 0.1 µM)?
**A.** Its IC50 is 2090 nM.

**Q.** And the IC50 (second compound 0.316 µM)?
**A.** The IC50 was 2140 nM.

**Q.** And the IC50 (second compound 1 µM)?
**A.** The IC50 was 2010 nM.

**Q.** What about the viability, T/C [1] of the same molecule?
**A.** The viability, T/C was 95.8%.

**Q.** And the viability, T/C [2]?
**A.** Its viability, T/C is 118%.

**Q.** And the viability, T/C [3]?
**A.** Its viability, T/C is 122%.

**Q.** What about the viability, T/C [4] of the same molecule?
**A.** Its viability, T/C is 107%.

**Q.** And the viability, T/C (second compound 0.00316 µM, first compound 3.16 µM)?
**A.** Its viability, T/C is 7.09%.

**Q.** What about the viability, T/C (second compound 0.00316 µM, first compound 10 µM) of the same molecule?
**A.** Its viability, T/C is 10.1%.

**Q.** And the viability, T/C [5]?
**A.** Its viability, T/C is 104%.

**Q.** What about the viability, T/C [6] of the same molecule?
**A.** The viability, T/C was 127%.

**Q.** And the viability, T/C [7]?
**A.** Its viability, T/C is 126%.

**Q.** What about the viability, T/C [8] of the same molecule?
**A.** Its viability, T/C is 128%.

**Q.** What about the viability, T/C (second compound 0.01 µM, first compound 3.16 µM) of the same molecule?
**A.** The viability, T/C was 8.44%.

**Q.** What about the viability, T/C (second compound 0.01 µM, first compound 10 µM) of the same molecule?
**A.** Its viability, T/C is 12.1%.

**Q.** What about the viability, T/C [9] of the same molecule?
**A.** The viability, T/C was 99.1%.

**Q.** And the viability, T/C [10]?
**A.** Its viability, T/C is 127%.

**Q.** What about the viability, T/C [11] of the same molecule?
**A.** Its viability, T/C is 122%.

**Q.** What about the viability, T/C [12] of the same molecule?
**A.** The viability, T/C was 152%.

**Q.** What about the viability, T/C (second compound 0.0316 µM, first compound 3.16 µM) of the same molecule?
**A.** Its viability, T/C is 9.15%.

**Q.** And the viability, T/C (second compound 0.0316 µM, first compound 10 µM)?
**A.** The viability, T/C was 9.78%.

**Q.** And the viability, T/C [13]?
**A.** Its viability, T/C is 139%.

**Q.** What about the viability, T/C [14] of the same molecule?
**A.** Its viability, T/C is 106%.

**Q.** What about the viability, T/C [15] of the same molecule?
**A.** The viability, T/C was 142%.

**Q.** And the viability, T/C [16]?
**A.** The viability, T/C was 120%.

**Q.** And the viability, T/C (second compound 0.1 µM, first compound 3.16 µM)?
**A.** The viability, T/C was 10.2%.

**Q.** And the viability, T/C (second compound 0.1 µM, first compound 10 µM)?
**A.** The viability, T/C was 9.75%.

**Q.** And the viability, T/C [17]?
**A.** Its viability, T/C is 145%.

**Q.** And the viability, T/C [18]?
**A.** Its viability, T/C is 105%.

**Q.** And the viability, T/C [19]?
**A.** The viability, T/C was 119%.

**Q.** What about the viability, T/C [20] of the same molecule?
**A.** The viability, T/C was 133%.

**Q.** What about the viability, T/C (second compound 0.316 µM, first compound 3.16 µM) of the same molecule?
**A.** Its viability, T/C is 11.5%.

**Q.** What about the viability, T/C (second compound 0.316 µM, first compound 10 µM) of the same molecule?
**A.** The viability, T/C was 9.87%.

**Q.** What about the viability, T/C [21] of the same molecule?
**A.** Its viability, T/C is 102%.

**Q.** And the viability, T/C [22]?
**A.** Its viability, T/C is 107%.

**Q.** What about the viability, T/C [23] of the same molecule?
**A.** Its viability, T/C is 125%.

**Q.** And the viability, T/C [24]?
**A.** The viability, T/C was 110%.

**Q.** What about the viability, T/C (second compound 1 µM, first compound 3.16 µM) of the same molecule?
**A.** The viability, T/C was 10.1%.

**Q.** And the viability, T/C (second compound 1 µM, first compound 10 µM)?
**A.** The viability, T/C was 13%.

**Q.** `O=C(c1ccc(F)c(F)c1Nc1ccc(I)cc1F)N1CC(O)([C@@H]2CCCCN2)C1` + C=CC(=O)N1CCN(c2nc(OCC3CCCN3C)nc3c(F)c(-c4nc(N)cc(C)c4C(F)(F)F)c(Cl)cc23)C(C)C1 was tested. Which IC50 (second compound 0.00316 µM) did it give?
**A.** The IC50 was 23 nM.

**Q.** What about the IC50 (second compound 0.01 µM) of the same molecule?
**A.** The IC50 was 14.2 nM.

**Q.** What about the IC50 (second compound 0.0316 µM) of the same molecule?
**A.** Its IC50 is 37.2 nM.

**Q.** And the IC50 (second compound 0.1 µM)?
**A.** Its IC50 is 40.1 nM.

**Q.** And the IC50 (second compound 0.316 µM)?
**A.** The IC50 was 72 nM.

**Q.** What about the IC50 (second compound 1 µM) of the same molecule?
**A.** Its IC50 is 26.9 nM.

**Q.** What about the viability, T/C (second compound 0.00316 µM, first compound 0.00316 µM) of the same molecule?
**A.** The viability, T/C was 93%.

**Q.** What about the viability, T/C (second compound 0.00316 µM, first compound 0.01 µM) of the same molecule?
**A.** The viability, T/C was 58%.

**Q.** What about the viability, T/C [1] of the same molecule?
**A.** The viability, T/C was 48%.

**Q.** What about the viability, T/C [2] of the same molecule?
**A.** The viability, T/C was 36.6%.

**Q.** What about the viability, T/C [3] of the same molecule?
**A.** Its viability, T/C is 29.8%.

**Q.** What about the viability, T/C [4] of the same molecule?
**A.** Its viability, T/C is 23.3%.

**Q.** What about the viability, T/C (second compound 0.01 µM, first compound 0.00316 µM) of the same molecule?
**A.** The viability, T/C was 84.2%.

**Q.** And the viability, T/C (second compound 0.01 µM, first compound 0.01 µM)?
**A.** Its viability, T/C is 45.3%.

**Q.** What about the viability, T/C [5] of the same molecule?
**A.** The viability, T/C was 45.7%.

**Q.** And the viability, T/C [6]?
**A.** The viability, T/C was 38.2%.

**Q.** And the viability, T/C [7]?
**A.** The viability, T/C was 31.4%.

**Q.** What about the viability, T/C [8] of the same molecule?
**A.** The viability, T/C was 19.6%.

**Q.** And the viability, T/C (second compound 0.0316 µM, first compound 0.00316 µM)?
**A.** The viability, T/C was 65.2%.

**Q.** And the viability, T/C (second compound 0.0316 µM, first compound 0.01 µM)?
**A.** The viability, T/C was 62.1%.

**Q.** What about the viability, T/C [9] of the same molecule?
**A.** Its viability, T/C is 44.4%.

**Q.** What about the viability, T/C [10] of the same molecule?
**A.** The viability, T/C was 47.2%.

**Q.** And the viability, T/C [11]?
**A.** The viability, T/C was 33.2%.

**Q.** And the viability, T/C [12]?
**A.** Its viability, T/C is 21.5%.

**Q.** What about the viability, T/C (second compound 0.1 µM, first compound 0.00316 µM) of the same molecule?
**A.** Its viability, T/C is 65%.

**Q.** What about the viability, T/C (second compound 0.1 µM, first compound 0.01 µM) of the same molecule?
**A.** Its viability, T/C is 61.3%.

**Q.** What about the viability, T/C [13] of the same molecule?
**A.** The viability, T/C was 44.8%.

**Q.** And the viability, T/C [14]?
**A.** The viability, T/C was 50.8%.

**Q.** And the viability, T/C [15]?
**A.** Its viability, T/C is 31.2%.

**Q.** What about the viability, T/C [16] of the same molecule?
**A.** Its viability, T/C is 24.1%.

**Q.** And the viability, T/C (second compound 0.316 µM, first compound 0.00316 µM)?
**A.** The viability, T/C was 97%.

**Q.** What about the viability, T/C (second compound 0.316 µM, first compound 0.01 µM) of the same molecule?
**A.** The viability, T/C was 66.4%.

**Q.** What about the viability, T/C [17] of the same molecule?
**A.** The viability, T/C was 62.6%.

**Q.** And the viability, T/C [18]?
**A.** Its viability, T/C is 48.1%.

**Q.** What about the viability, T/C [19] of the same molecule?
**A.** Its viability, T/C is 33.8%.

**Q.** What about the viability, T/C [20] of the same molecule?
**A.** Its viability, T/C is 20.3%.

**Q.** And the viability, T/C (second compound 1 µM, first compound 0.00316 µM)?
**A.** Its viability, T/C is 80.2%.

**Q.** And the viability, T/C (second compound 1 µM, first compound 0.01 µM)?
**A.** The viability, T/C was 65.4%.

**Q.** What about the viability, T/C [21] of the same molecule?
**A.** The viability, T/C was 42.6%.

**Q.** What about the viability, T/C [22] of the same molecule?
**A.** The viability, T/C was 39.3%.

**Q.** And the viability, T/C [23]?
**A.** The viability, T/C was 32.5%.

**Q.** And the viability, T/C [24]?
**A.** The viability, T/C was 22.6%.
